Converted amounts (≈) assume the structure as drawn.

For experiment [1], the target named is Polyunsaturated fatty acid 5-lipoxygenase (Homo sapiens) (UniProt P09917). Kind of experiment: Inhibition of 5-LOX (unknown origin) at 30 ug/ml relative to control.
Experiment [2] is described as follows: Inhibition of TNFalpha-induced NFkappaB (unknown origin) activation expressed in HEK293 cells preincubated for 1 hr followed by TNFalpha stimulation and measured after 1 hr by dual luciferase reporter gene assay. In kind it is cell-based. The note with it: Homo sapiens. In general terms: In a reporter assay the amount or activity of a reporter protein is the signal.

Experiment [3] has as its system KB. The experiment can be described thus: Cytotoxicity against human KB cells by MTT assay. In kind it is functional, cell-based.
The subject of experiment [4] is HCT-116. The experiment can be described thus: Cytotoxicity against human HCT116 cells by MTT assay. It counts as functional, cell-based.
In experiment [5] the test system is HCT-116. Kind of experiment: Cytotoxicity against human HCT116 cells after 72 hrs by MTT assay. In kind it is functional, cell-based. The following applies: HCT-116, 72 h. Background: Formazan colour is commonly taken as a measure of viable cells.
Experiment [6] relates to MDA-MB-435. The experiment can be described thus: Cytotoxicity against human MDA-MB-435 cells after 72 hrs by MTT assay. The following applies: MDA-MB-435, 72 h. It counts as functional, cell-based.
Experiment [7] relates to HepG2. The experiment can be described thus: Cytotoxicity against human HepG2 cells after 72 hrs by MTT assay. In kind it is functional, cell-based. The note with it: HepG2, 72 h.
Experiment [8] in a line: Inhibition of TNFalpha-induced NFkappaB (unknown origin) activation expressed in HEK293 cells after 6 hrs by luciferase reporter gene based assay. The note with it: Homo sapiens, HEK293, 6 h. In kind it is cell-based.
In experiment [9] the test system is HL-60. The experiment can be described thus: Cytotoxicity against human HL60 cells after 24 hrs by MTT assay. It counts as functional, cell-based. The note with it: HL-60, 24 h.
Experiment [10] concerns A549. The experiment can be described thus: Cytotoxicity against human A549 cells after 24 hrs by MTT assay. It counts as functional, cell-based. The following applies: A549, 24 h.
Experiment [11] deals with MKN-45. Kind of experiment: Cytotoxicity against human MKN45 cells after 24 hrs by MTT assay. In kind it is functional, cell-based. The following applies: MKN-45, 24 h.
For experiment [12], the system named is LoVo. The experiment can be described thus: Cytotoxicity against human LoVo cells after 24 hrs by MTT assay. It counts as functional, cell-based.
Experiment [13] deals with T47D. The experiment can be described thus: Cytotoxicity against human T47D cells after 48 hrs by MTT assay. It counts as functional, cell-based.
For experiment [14], the system named is MG-63. Kind of experiment: Cytotoxicity against human MG63 cells after 72 hrs by MTT assay. In kind it is functional, cell-based. The note with it: MG-63, 72 h.
Experiment [15] in a line: Cytotoxicity against human Tca8113 cells after 72 hrs by MTT assay. In kind it is functional, cell-based.
Experiment [16] relates to A2780. Kind of experiment: Cytotoxicity against human A2780 cells after 72 hrs by MTT assay. In kind it is functional, cell-based. The note with it: A2780, 72 h.
Experiment [17] deals with MCF7. The experiment can be described thus: Cytotoxicity against human MCF7 cells by MTT assay. In kind it is functional, cell-based.
The subject of experiment [18] is HeLa. Kind of experiment: Cytotoxicity against human HeLa cells by MTT assay. In kind it is functional, cell-based.
In experiment [19] the test system is HL-60. The experiment can be described thus: Cytotoxicity against human HL60 cells by trypan blue exclusion assay. In kind it is functional, cell-based.
The test system of experiment [20] is K562. Kind of experiment: Cytotoxicity against human K562 cells by trypan blue exclusion assay. It counts as functional, cell-based.
For experiment [21], the system named is A2780. Kind of experiment: Cytotoxicity against human A2780 cells by MTT assay. In kind it is functional, cell-based.
The test system of experiment [22] is A549. The experiment can be described thus: Cytotoxicity against human A549 cells by MTT assay. It counts as functional, cell-based.

Polyunsaturated fatty acid 5-lipoxygenase (Homo sapiens), sequence (P09917 whole entry): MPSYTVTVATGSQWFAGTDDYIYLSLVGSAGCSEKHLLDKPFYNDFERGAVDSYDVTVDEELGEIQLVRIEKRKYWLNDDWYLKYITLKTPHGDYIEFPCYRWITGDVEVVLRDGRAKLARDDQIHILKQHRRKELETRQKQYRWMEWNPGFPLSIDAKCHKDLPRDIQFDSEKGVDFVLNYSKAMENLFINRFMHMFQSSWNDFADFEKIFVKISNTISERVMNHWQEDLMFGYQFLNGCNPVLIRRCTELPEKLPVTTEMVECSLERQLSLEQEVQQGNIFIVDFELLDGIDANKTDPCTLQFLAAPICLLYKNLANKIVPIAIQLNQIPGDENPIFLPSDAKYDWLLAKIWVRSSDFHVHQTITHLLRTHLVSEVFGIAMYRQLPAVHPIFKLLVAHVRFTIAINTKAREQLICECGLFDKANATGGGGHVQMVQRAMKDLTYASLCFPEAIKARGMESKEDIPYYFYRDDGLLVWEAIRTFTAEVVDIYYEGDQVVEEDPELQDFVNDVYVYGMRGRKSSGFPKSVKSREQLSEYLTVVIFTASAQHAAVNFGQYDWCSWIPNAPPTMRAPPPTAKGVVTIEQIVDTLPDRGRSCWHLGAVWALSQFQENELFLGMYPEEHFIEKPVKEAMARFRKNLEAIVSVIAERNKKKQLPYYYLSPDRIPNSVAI

What is called inhibition is the percentage by which the read-out fell short of the control. Higher therefore signals a response far below the control. As for `CCCCC(O)/C=C/C1=C(CO)[C@@H](O)[C@@H](O)[C@](Cl)(C/C=C(\C)C(=O)O)C1=O` (stereo not given in full), in experiment [1], the inhibition stood at 48.3%.
For orientation: IC50 means the concentration needed to halve the response being measured. High values mean weaker potency, low ones greater potency. Take `CO[C@]12OC[C@@H](C)[C@H]1C[C@]1(C)[C@@H](C)CC[C@H](O)[C@@]13O[C@@H]23`: in experiment [2], inhibition was half-maximal at 19.2 µM (IC50).
Consider `CC1=C2[C@@H](O)C[C@@]2(C)[C@@H]2C[C@@H]3CC[C@@H](C)[C@@]2(CC1)C3(C)C`, for which the IC50 in experiment [3] and in experiment [4] was 25 µM in each case.
Turning to `O=Cc1cc(/C=C/c2cc(O)cc(O)c2C=O)ccc1O`, the IC50 in experiment [5], in experiment [6] and in experiment [7] was below 50 µM each time.
With `CCCCC[C@@H]1OC2=C(C(=O)N(OC)C2C[S@+]([O-])C[C@@H](O)C(=O)O)[C@H](O)[C@@]1(C)O` (stereo not given in full), inhibition in [8] was half-maximal at 1.5 µM (IC50).
Turning to `CC[C@@H](O)[C@H](O)[C@@H]1C[C@](O)(OC)CC(=O)O1`, the IC50 in experiment [9], in experiment [10], in experiment [11] and in experiment [12] was below 200 µM each time.
In the case of `C=CC1=CC2=CC(=O)[C@](C)(OC(=O)/C=C/C(C)=C/[C@@H](C)CCCC)C(=O)C2=CO1`, the half-inhibitory concentration (IC50) in experiment [13] is 1 to 10 µM.
Consider `O=Cc1cc(/C=C/c2cc(O)cc(O)c2)ccc1O`, for which the IC50 in experiment [5], in [6] and in experiment [7] was below 50 µM in each case.
On to `C[C@@H]1CC[C@@H]2[C@@H](C)C(=O)O[C@@H]2[C@@]12C=C(CO)CC2`, for which the IC50 in experiment [14] turned out to be 0.055 µM; in [15], 10 µM.
Regarding `CCCC[C@H](C)/C=C(C)/C=C/C(=O)O[C@@]1(C)C(=O)C=C2C=C(/C=C/C(=O)O)OC=C2C1=O`, the 50% inhibitory concentration (IC50) in experiment [13] fell in the range of 1 to 10 µM.
Take `C[C@@H]1CO[C@@]2(O)[C@@H]1C[C@]1(C)[C@@H](C)CC[C@H](O)[C@@]13O[C@@H]23`: the IC50 in experiment [2] stood at 7.11 µM.
On to `CCCC[C@H](O)C(=O)C/C(=C\C(=O)O)OC`, for which the IC50 in experiment [9], in experiment [10], in experiment [11] and in experiment [12] was below 200 µM each time.
For the compound `O=C1N[C@@]2(Cc3ccccc3O2)C(=O)N/C1=C\c1ccccc1O`, the IC50 in experiment [16] was 59 µM.
As to `C[C@@H]1CC[C@@]23[C@H](C)CC[C@@H](C[C@H]2[C@]2(C)CC(=O)[C@H]12)C3(C)C`, the values for the IC50 in experiment [17] and in experiment [18] were 30.7 µM and 30.1 µM, respectively.
With `CCCCc1c(OC)cc(=O)oc1CO`, the IC50 turned out to be 0.45 µg/mL (≈ 2.12 µM) in experiment [19] and 0.9 µg/mL (≈ 4.24 µM) in [20].
In the case of `C/C=C(\C)[C@H]1[C@@H](/C=C/C=C(\C)[C@@H](O)[C@@H](C)C(C)O)[C@@H]2C[C@@H](OC(=O)Cc3ccccc3)[C@](C)(O)C[C@H]2[C@@H]2O[C@@]21C` (stereo not given in full), the half-inhibitory concentration (IC50) in experiment [21] came to 12.5 µM.
Regarding `CCCC[C@H](C)/C=C(C)/C=C/C(=O)O`, in experiment [13], the half-maximal inhibitory concentration (IC50) lay in the range of 1 to 10 µM.
Take `O=Cc1c(O)cc(O)cc1/C=C/c1ccc(O)cc1`: the IC50 in experiment [5], in experiment [6] and in [7] was below 50 µM each time.
Regarding `CC(C)(O)C(O)COc1ccc(CCO)cc1` (stereo not given), the IC50 in experiment [14] came to 35 µM; in [15], 26 µM.
The compound `COC(=O)c1cc(OC)cc(OC)c1C(=O)c1coc2c1OC(C)CC2=O` (stereo not given) gave an IC50 in [3] of 4.7 µM.
As to `O=C1N[C@H](Cc2ccccc2)C(=O)N[C@H]1Cc1cn([C@]23C[C@H]4C(=O)N[C@H](Cc5ccccc5)C(=O)N4[C@H]2Nc2ccccc23)c2ccccc12`, the IC50 in [21] was found to be 56.7 µM.
Consider `CCCCc1c(OC)cc(=O)oc1C`, for which the IC50 worked out at 38.7 µM in [22], 45.1 µM in experiment [4] and 27 µM in experiment [18].
Regarding `CCCCC[C@@H]1OC2=C(C(=O)N(OC)C2CSC[C@@H](O)C(=O)O)[C@H](O)[C@@]1(C)O` (stereo not given in full), the concentration for half-maximal inhibition (IC50) in experiment [8] stood at 7.1 µM.
`CCCCC/C=C/C1=C(CO)[C@@H](O)[C@H]2O[C@@]2(C/C=C(\C)C(=O)O)[C@H]1O`: the inhibition in experiment [1] was 67.4%.
For `COc1cc(=O)oc(C)c1CCC(C)=O`, the IC50 is 0.18 µg/mL (≈ 0.856 µM) in experiment [19] and 0.3 µg/mL (≈ 1.43 µM) in experiment [20].

Values taken from ChEMBL document CHEMBL4411258, “Novel natural compounds from endophytic fungi with anticancer activity” (Eur J Med Chem, 2018).
